The text below walks through data of patent US20230250098A1 (priority 2021, published 2023).

Data set [1] addresses T1, κOP (Homo sapiens, UniProt P41145). The class given is binding. Also on record: membranes isolated. As to conditions: for pKi: read-out: Binding Ki.
Data set [2] relates to C57Bl/6 wild-type mice. In words: Two-bottle choice alcohol paradigm (drinking in the dark, 10% ethanol vs water). It counts as in vivo, mouse. To be noted: for alcohol intake, in words: systemic (i.p.) injection, modified 2-bottle choice, male C57BL/6 mice, FIG. 1.
Data set [3] addresses T2, δOP (Homo sapiens, UniProt P41143). It counts as binding. Also on record: membranes isolated. As to conditions: for Binding pKi / pKi: [3H]DPDPE, CHO membranes; for pKi: read-out: Binding Ki.
The test system of data set [4] is WT mice. In words: Accelerating rotarod test. To be noted: 30 mg·kg^−1 i.p. On the technique in general: In the rotarod test animals must keep their balance on a rotating rod.
Data set [5] addresses T2, δOP. The class given is cell-based.
Data set [6] concerns the target T1, κOP. The class given is cell-based.
In data set [7] the test system is δOP KO mice. In words: Accelerating rotarod test in δOP KO mice.
The target in data set [8] is T3, μOP (Homo sapiens, UniProt P35372). The class given is cell-based. As to conditions: normalized to positive control DAMGO.
T3 sequence (P35372 whole entry): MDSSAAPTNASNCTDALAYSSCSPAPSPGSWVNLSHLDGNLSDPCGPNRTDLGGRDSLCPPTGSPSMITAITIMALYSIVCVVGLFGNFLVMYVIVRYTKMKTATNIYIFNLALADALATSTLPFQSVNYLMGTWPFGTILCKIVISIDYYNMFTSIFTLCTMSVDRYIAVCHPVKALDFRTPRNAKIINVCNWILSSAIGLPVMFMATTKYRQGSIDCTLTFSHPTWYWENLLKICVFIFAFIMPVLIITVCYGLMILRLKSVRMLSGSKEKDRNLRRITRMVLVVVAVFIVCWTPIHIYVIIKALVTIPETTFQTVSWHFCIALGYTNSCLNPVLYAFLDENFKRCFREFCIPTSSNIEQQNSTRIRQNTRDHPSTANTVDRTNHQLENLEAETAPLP
Data set [9] deals with T4, HA-mouse μOP (Mus musculus, UniProt P42866).
T4 construct: HA (N); expressed in transfected cells; host or cells: HEK cells, transient transfection together with pGloSensor22F
T4 sequence (P42866 whole entry): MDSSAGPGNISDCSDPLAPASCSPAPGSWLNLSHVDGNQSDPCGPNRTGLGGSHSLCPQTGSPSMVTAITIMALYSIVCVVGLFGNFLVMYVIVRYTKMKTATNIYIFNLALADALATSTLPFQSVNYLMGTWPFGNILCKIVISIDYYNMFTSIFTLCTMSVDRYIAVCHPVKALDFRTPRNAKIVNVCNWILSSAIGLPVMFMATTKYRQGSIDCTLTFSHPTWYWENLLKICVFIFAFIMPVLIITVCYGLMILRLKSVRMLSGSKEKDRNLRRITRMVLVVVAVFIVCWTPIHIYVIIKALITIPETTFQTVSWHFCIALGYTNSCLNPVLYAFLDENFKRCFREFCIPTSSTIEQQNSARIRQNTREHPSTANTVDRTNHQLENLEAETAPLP
In words: GloSensor cAMP inhibition assay in transfected HEK cells. It counts as cell-based. To be noted: for cAMP α: efficacy normalized to positive control DAMGO; for pIC50 / cAMP pIC50: inhibition of forskolin-induced cAMP.

The subject of data set [10] is male, WT mice. As to conditions: dose not stated; cited from earlier work.
Data set [11] deals with T5, FLAG-mouse κOP (Mus musculus, UniProt P33534).
T5 construct: FLAG (N); expressed in transfected cells; host or cells: HEK cells, transient transfection together with pGloSensor22F
T5 sequence (P33534 whole entry): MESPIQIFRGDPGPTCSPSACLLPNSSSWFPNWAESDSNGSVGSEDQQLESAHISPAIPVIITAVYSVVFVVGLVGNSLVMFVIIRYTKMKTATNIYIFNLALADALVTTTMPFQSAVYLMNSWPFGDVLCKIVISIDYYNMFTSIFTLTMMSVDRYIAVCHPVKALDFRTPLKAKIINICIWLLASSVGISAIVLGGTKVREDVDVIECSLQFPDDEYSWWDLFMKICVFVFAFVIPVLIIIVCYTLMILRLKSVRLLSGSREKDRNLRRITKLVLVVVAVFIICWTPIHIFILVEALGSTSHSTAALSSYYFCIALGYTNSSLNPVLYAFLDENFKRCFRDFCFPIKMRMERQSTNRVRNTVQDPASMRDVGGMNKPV
It counts as cell-based. To be noted: for pIC50: read-out: cAMP IC50.

In data set [12] the target is T6, FLAG-mouse δOP (Mus musculus, UniProt P32300).
T6 construct: FLAG (N); expressed in transfected cells; host or cells: HEK cells (HEK-293), transient transfection together with pGloSensor22F
T6 sequence (P32300 whole entry): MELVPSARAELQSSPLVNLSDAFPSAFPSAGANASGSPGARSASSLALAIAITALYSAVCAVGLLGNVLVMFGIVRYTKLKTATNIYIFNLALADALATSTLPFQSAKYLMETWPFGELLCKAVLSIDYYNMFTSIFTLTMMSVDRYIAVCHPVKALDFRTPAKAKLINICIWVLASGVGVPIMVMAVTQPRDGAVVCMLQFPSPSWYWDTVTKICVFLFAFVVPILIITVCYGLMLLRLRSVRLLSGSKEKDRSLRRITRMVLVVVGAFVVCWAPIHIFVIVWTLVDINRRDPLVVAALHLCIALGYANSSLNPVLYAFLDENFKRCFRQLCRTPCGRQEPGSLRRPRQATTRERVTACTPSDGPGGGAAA
Briefly: GloSensor cAMP inhibition assay in transfected HEK cells. It counts as cell-based. To be noted: for cAMP α: efficacy normalized to positive control Leu-Enk; for pIC50 / cAMP pIC50: inhibition of forskolin-induced cAMP.

In data set [13] the test system is C57Bl/6 wild-type mice. To be noted: cited from earlier work; for alcohol consumption, in words (previous reports): dose not stated; for alcohol intake, in words (previous reports): 10 mg·kg^−1.
Data set [14] has as its system WT mice. As to conditions: 7-hydroxymitragynine dose not stated; paynantheine 10 mg·kg^−1; cited from earlier work.
The target in data set [15] is T3, μOP. The class given is binding. Also on record: membranes isolated. To be noted: [3H]DAMGO, CHO membranes.
In data set [16] the test system is δOP KO mice. Briefly: Seizure assay in δOP KO mice. To be noted: 30 mg·kg^−1 i.p.
Data set [17] has as its system δOP KO mice. In words: Two-bottle choice alcohol paradigm in δOP KO mice. The class given is in vivo, mouse. To be noted: 10 mg·kg^−1; male δOP KO mice.
Data set [18] deals with male, WT mice. In words: Conditioned place preference (brief and extended). As to conditions: 10 mg·kg^−1.
Data set [19] relates to male mice. In words: Tail flick thermal nociception assay. The class given is in vivo, mouse.
In data set [20] the test system is wildtype mice. In words: Seizure assay (modified racine scale).
The subject of data set [21] is WT mice. Briefly: Locomotor evaluation. To be noted: 10 mg·kg^−1.

pIC50, pKi: −log10 of the molar value. “Also recorded” adds a separate entry of the source. Read-outs that look alike come from different tables or passages of the source.

T2 sequence (P41143 whole entry): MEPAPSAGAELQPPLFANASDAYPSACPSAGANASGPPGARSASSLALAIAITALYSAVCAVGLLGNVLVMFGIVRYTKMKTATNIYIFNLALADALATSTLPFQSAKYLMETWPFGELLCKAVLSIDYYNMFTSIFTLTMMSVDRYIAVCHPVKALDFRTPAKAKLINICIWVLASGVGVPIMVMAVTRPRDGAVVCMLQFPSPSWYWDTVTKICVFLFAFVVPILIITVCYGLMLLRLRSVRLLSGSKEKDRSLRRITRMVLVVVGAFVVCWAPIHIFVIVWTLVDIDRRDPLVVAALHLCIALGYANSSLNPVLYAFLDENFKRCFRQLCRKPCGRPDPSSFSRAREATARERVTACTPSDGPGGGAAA
T1 sequence (P41145 whole entry): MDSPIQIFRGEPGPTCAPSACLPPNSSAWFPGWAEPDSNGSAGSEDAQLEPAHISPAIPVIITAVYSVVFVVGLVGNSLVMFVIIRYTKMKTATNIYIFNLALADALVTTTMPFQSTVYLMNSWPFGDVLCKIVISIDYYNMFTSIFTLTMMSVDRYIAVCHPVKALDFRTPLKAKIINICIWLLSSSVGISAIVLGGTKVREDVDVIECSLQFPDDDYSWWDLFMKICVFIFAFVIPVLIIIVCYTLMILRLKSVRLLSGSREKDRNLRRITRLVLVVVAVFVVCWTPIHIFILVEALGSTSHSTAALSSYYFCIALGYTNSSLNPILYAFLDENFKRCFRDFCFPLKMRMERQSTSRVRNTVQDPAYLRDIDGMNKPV

In the case of `CC[C@@H]1CN2CCc3c([nH]c4cccc(OC)c34)[C@H]2C[C@@H]1/C(=C\OC)C(=O)OC` [SPECIO, speciociliatine], in [1], the “Binding pKi” value was 6.2 ± 0.1 (4) and the pKi is 6.23. Besides, in data set [2] (30 mg·kg^−1 (7-hydroxypaynantheine s.c., speciociliatine i.p.), WT male mice), the “ethanol consumption, in words” value was “significantly decreased ethanol consumption; also recorded: significant and sharp decrease in alcohol consumption”. Further, in [2] (30 mg·kg^−1, WT mice), the “average decrease of ethanol consumption” value was 2.5 ± 0.3 g/kg and the “percent reduction of ethanol consumption” value came out at 90±3%. Besides, in [3], the “δOP binding, in words” value is “displayed binding at the δOP”; the “Binding pKi” value is recorded as 5.4±0.1; the negative logarithm of the Ki (pKi) is 5.36. For the same compound, the “rotarod performance (time spent on the rod), in words” value in data set [4] is recorded as “significantly reduced the ability of treated wildtype mice to perform in the rotarod assessment; also recorded: significantly impairs motor incoordination; also recorded: significantly decreased time spent on the rod”. For the same compound, the “time of full recovery on rotarod” value in [4] (post-injection) stood at 120 min. Further, in [5], the “β-arrestin2 recruitment, in words” value is reported as “no β-arrestin2 recruitment was detected”. For the same compound, in [6], the “β-arrestin2 recruitment, in words” value is “no β-arrestin2 recruitment was detected”. Moreover, in data set [7] (30 mg/kg i.p.), the “death and seizures in the rotarod assay” value is given as “one δOP KO mouse died after experiencing severe, level 5-6 seizures”. For the same compound, the “rotarod performance, in words” value in data set [7] (30 mg·kg^−1 i.p.) is recorded as “The same effect was observed in δOP KO mice; also recorded: significantly impairs motor incoordination; also recorded: significantly decreased time spent on the rod”.
Turning to `C[C@@H](NC(=O)[C@@H](N)Cc1ccc(O)cc1)C(=O)NCC(=O)N(C)[C@@H](Cc1ccccc1)C(=O)NCCO` [DAMGO, (2S)-2-[[2-[[(2R)-2-[[(2S)-2-Amino-3-(4-hydroxyphenyl)propanoyl]amino]propanoyl]amino]acetyl]-methylamino]-N-(2-hydroxyethyl)-3-phenylpropanamide, reference compound], in data set [8], the “β-arrestin 2 α” value stood at 100. Also, the “cAMP α” value in data set [9] was determined as 100.
Consider `CC[C@@H]1CN2CC[C@@]3(O)C(=Nc4cccc(OC)c43)[C@@H]2C[C@@H]1/C(=C\OC)C(=O)OC` [7-OH MITRA, 7-hydroxymitragynine, reference compound], for which the “conditioned place preference (previous report)” value in data set [10] was “caused both CPP and hyperlocomotion”. Further, in data set [1], the “Binding pKi” value is on record as 6.9 ± 0.1 (4) and the pKi is 7.85. Further, the “alcohol intake, in words” value in data set [2] was “reduce alcohol intake”. In addition, in [11], the “cAMP pIC50” value was “*6.2 ± 0.3 (9)”, the “cAMP α” value stood at 77 ± 5 and the pIC50 is 5.98. For the same compound, in data set [3], the “Binding pKi” value was 6.7 ± 0.1 (4) and the pKi was 7.72. Moreover, in data set [12], the “cAMP α” value is given as 80 ± 8, the pIC50 is 6.02 and the “cAMP pIC50” value is given as “*5.7 ± 0.2 (8)”. The “alcohol consumption, in words (previous reports)” value in data set [13] was “decrease alcohol consumption”. Besides, the “hyperlocomotion (previous reports)” value in data set [14] is “caused both CPP and hyperlocomotion”. The “β-arrestin 2 pEC50” value in data set [5] was 6.4 ± 0.3 (6). Also, in data set [5] (normalized to positive control Leu-Enk), the “β-arrestin 2 α” value stood at 14 ± 1. Moreover, in data set [9], the “cAMP α” value worked out at 84 ± 3, the pIC50 was 7.80 and the “cAMP pIC50” value is given as 7.8±0.1.
As to `C=C[C@H]1CN2CCc3c([nH]c4cccc(OC)c34)[C@@H]2C[C@@H]1/C(=C\OC)C(=O)OC` [PAYN, paynantheine, reference compound], the “Binding pKi” value in data set [15] was 6.3 ± 0.1 (4); in data set [1], 5.5 ± 0.1 (5); in [3], 5.3 ± 0.1 (5). The pKi was 7.28 in data set [15] (read-out: Binding Ki), 5.40 in data set [1] and 5.11 in data set [3]. For the same compound, in data set [16], the “seizure activity in δOP KO mice” value was “still present in δOP KO mice”. In data set [2], the “alcohol intake, in words” value was “reduce alcohol intake”. In addition, the “ethanol consumption in δOP KO mice, in words” value in data set [17] is listed as “did not significantly decrease ethanol consumption; also recorded: alcohol consumption was not significantly altered”. The “cAMP pIC50” value in data set [11] is given as “*5.3 ± 0.2 (4)”; in data set [12], “*5.6 ± 0.2 (4)”; in [9], “*5.4 ± 0.1 (5)”. For the same compound, the figures for the “cAMP α” value in data set [11], in [12] and in data set [9] were 95 ± 5, 64 ± 13 and 100 ± 0, respectively. Besides, the pIC50 in data set [11] is 5.13; in data set [12] it was 5.45; in data set [9] it was 5.39. In addition, the “conditioned place preference, brief paradigm” value in data set [18] is given as “induces conditioned place aversion (CPA)”. The “conditioned place preference, extended protocol” value in [18] (four conditioning sessions each for drug and vehicle) is “does not produce place preference”. The “block of morphine analgesia (antagonist mode)” value in data set [19] (10 mg·kg^−1, then morphine 6 mg·kg^−1 s.c. 10 minutes later) is “did not produce antinociception (paired, two-tailed t-test, t=0.6193, df=9, p=0.5511) or block morphine analgesia”. In addition, the “antinociception (agonist mode)” value in [19] (10 mg·kg^−1, 30 minutes after drug) is on record as “did not produce antinociception”. Besides, the “alcohol intake, in words (previous reports)” value in data set [13] (listed as Paynantheine) is listed as “decrease alcohol intake”; in data set [13] (listed as paynantheine), “significant reduction”. For the same compound, the “alcohol consumption, in words (previous reports)” value in data set [13] is “decrease alcohol consumption”. Further, the seizure activity entry in [20] (10 mg·kg^−1) is reported as “not showing overt signs of seizure activity”; in [20] (30 mg·kg^−1), “induced seizures”. In addition, the “hyperlocomotion (previous reports)” value in data set [14] is given as “without causing hyperlocomotion”. Further, the “ambulation / locomotor activity” value in data set [21] is on record as “a trend towards decreased locomotor activity”.

The term pKi denotes the negative decadic logarithm of the Ki, by convention in mol/L. The term pIC50 denotes −log10 of the IC50, conventionally taken in molar units.
